Converted amounts (≈) assume the structure as drawn. The source made the active and inactive calls. No cut-off for these calls is given here.
How the values were obtained:
A549 = assay type: functional, Homo sapiens
Description: Tested in vitro for cytotoxic activity against lung carcinoma (A-549) cell line

HCT-8 [1] = assay: Tested in vitro for cytotoxic activity against ileocecal carcinoma (HCT-8) cell line; assay type: functional, Homo sapiens
HOS [2] = assay: Tested in vitro for cytotoxic activity against bone(HOS) cell line; assay type: functional, Homo sapiens
1A9 [3] = assay: Tested in vitro for cytotoxic activity against Human ovarian cancer (IA9) cell line; assay type: functional
KB [4] = assay: Tested in vitro for cytotoxic activity against epidermoid carcinoma of the nasopharynx(KB) cell line; assay type: functional, Homo sapiens
MCF7 = assay: Tested in vitro for cytotoxic activity against breast cancer (MCF-7) cell line; assay type: functional, Homo sapiens
PC-3 [5] = assay: Tested in vitro for cytotoxic activity against prostate cancer (PC3) cell line; assay type: functional, Homo sapiens
SK-MEL-2 [6] = assay: Tested in vitro for cytotoxic activity against melanoma (SKMEL-2) cell line; assay type: functional, Homo sapiens
U-87 MG [7] = assay: Tested in vitro for cytotoxic activity against glioblastoma (U-87-MG) cell line;NA means not active.; assay type: functional, cell-based; conditions: Homo sapiens; U-87MG ATCC
KB [8] = assay: Tested in vitro for cytotoxic activity against P-glycoprotein-expressing epidermoid carcinoma of the nasopharynx(KB-VIN) cell line; assay type: functional, Homo sapiens
Tubulin = Tubulin (Bos taurus, UniProt Q6B856+Q862L2+Q862F3); assay: Inhibition of bovine tubulin polymerization; assay type: functional
HOS [9] = assay: Tested in vitro for cytotoxic activity against bone(HOS) cell line; NA means Not active; assay type: functional, cell-based; conditions: Homo sapiens
1A9 [10] = assay: Tested in vitro for cytotoxic activity against Human ovarian cancer (IA9) cell line; NA means Not active; assay type: functional, cell-based
U-87 MG [11] = assay: Tested in vitro for cytotoxic activity against glioblastoma (U-87-MG) cell line; assay type: functional, Homo sapiens, U-87MG ATCC
U-87 MG [12] = assay: Tested in vitro for cytotoxic activity against glioblastoma (U-87-MG) cell line; NA means Not active; assay type: functional, cell-based; conditions: Homo sapiens; U-87MG ATCC
HCT-8 [13] = assay: Tested in vitro for cytotoxic activity against ileocecal carcinoma (HCT-8) cell line; NA means Not active; assay type: functional, cell-based; conditions: Homo sapiens
1A9 [14] = assay: Tested in vitro for cytotoxic activity against human ovarian cancer (IA9)cell line; assay type: functional
SK-MEL-2 [15] = assay: Tested in vitro for cytotoxic activity against melanoma (SKMEL-2) cell line; NA means Not active; assay type: functional, cell-based; conditions: Homo sapiens
PC-3 [16] = assay: Tested in vitro for cytotoxic activity against prostate cancer (PC3) cell line; NA means Not active; assay type: functional, cell-based; conditions: Homo sapiens
KB [17] = assay: Tested in vitro for cytotoxic activity against epidermoid carcinoma of the nasopharynx(KB) cell line; NA means Not active; assay type: functional, cell-based; conditions: Homo sapiens
Tubulin (Bos taurus) = Tubulin (Bos taurus) (UniProt Q6B856+Q862L2+Q862F3); assay: Tested for inhibition of radioligand colchicine binding to bovine tubulin; assay type: protein assay; conditions: concentration not given here

IC50 (Tubulin) [µM]	SMILES	ED50 (A549) [µg/mL]	ED50 (HCT-8 [1]) [µg/mL]	ED50 (HOS [2]) [µg/mL]	ED50 (1A9 [3]) [µg/mL]	ED50 (KB [4]) [µg/mL]	ED50 (MCF7) [µg/mL]	ED50 (PC-3 [5]) [µg/mL]	ED50 (SK-MEL-2 [6]) [µg/mL]	ED50 (KB [8]) [µg/mL]	ED50 (U-87 MG [11]) [µg/mL]	ED50 (U-87 MG [12])	other results
–	COc1ccc(-c2nc(O)c3ccccc3n2)cc1	> 20	> 20	> 20	> 20	> 20	> 20	> 20	> 20	> 20	–	–	ED50 (U-87 MG [7]): inactive
> 40	COc1cccc(C2NC(=O)c3ccccc3N2)c1OC (centres undefined)	> 20	> 20	> 20	–	> 20	> 20	> 20	< 20	8.6 (≈ 30.2 µM)	–	–	Inhibition (KB [4]): 41%; Inhibition (PC-3 [5]): 20%; ED50 (U-87 MG [7]): inactive
–	COc1cccc(-c2nc(O)c3cc(F)ccc3n2)c1	–	> 20	–	–	> 20	> 20	20 (≈ 74 µM)	> 20	18 (≈ 66.6 µM)	> 20	–	ED50 (HOS [9]): inactive; ED50 (1A9 [10]): inactive
> 40	COc1ccc(C2NC(=O)c3ccccc3N2)c(OC)c1 (centres undefined)	> 20	> 20	> 20	–	> 20	> 20	> 20	> 20	7.6 (≈ 26.7 µM)	–	inactive	Inhibition (HOS [2]): 40%; Inhibition (KB [4]): 43%
–	COc1cccc(-c2nc(O)c3cc(N4CCC(C)CC4)ccc3n2)c1	6 (≈ 17.2 µM)	4 (≈ 11.4 µM)	–	0.8 (≈ 2.29 µM)	–	10 (≈ 28.6 µM)	–	7.5 (≈ 21.5 µM)	2.5 (≈ 7.15 µM)	–	–	–
0.32	COc1cccc(-c2cc(O)c3cc(N4CCCC4)ccc3n2)c1	–	–	–	–	–	–	–	–	–	–	–	–
> 40	COc1ccc(C2NC(=O)c3ccccc3N2)cc1 (centres undefined)	> 20	> 20	> 20	20 (≈ 78.7 µM)	> 20	> 20	> 20	> 20	> 20	–	inactive	Inhibition (PC-3 [5]): 14%; Inhibition (KB [8]): 39%
–	COc1cccc(-c2nc(O)c3cc(N4CCOCC4)ccc3n2)c1	–	–	–	3.8 (≈ 11.3 µM)	8.2 (≈ 24.3 µM)	4.5 (≈ 13.3 µM)	–	4.8 (≈ 14.2 µM)	3.7 (≈ 11 µM)	20 (≈ 59.3 µM)	–	–
–	COc1ccccc1-c1nc(O)c2ccccc2n1	> 20	–	> 20	–	> 20	> 20	–	–	> 20	–	inactive	ED50 (HCT-8 [13]): inactive; ED50 (1A9 [14]): > 20 µg/mL; ED50 (SK-MEL-2 [15]): inactive; ED50 (PC-3 [16]): inactive
–	COc1ccc(OC)c(-c2nc(O)c3ccccc3n2)c1	> 20	> 20	> 20	> 20	> 20	> 20	> 20	> 20	> 20	–	inactive	–
–	COc1ccc(-c2nc(O)c3ccccc3n2)cc1OC	> 20	> 20	> 20	> 20	> 20	> 20	> 20	> 20	> 20	–	inactive	–
–	COc1cccc(-c2nc(O)c3cc(OC)c(OC)cc3n2)c1	> 20	> 20	> 20	–	–	12 (≈ 38.4 µM)	15 (≈ 48 µM)	18 (≈ 57.6 µM)	–	> 20	–	–
–	COc1cccc(-c2nc(O)c3cc4c(cc3n2)OCO4)c1	> 20	–	> 20	> 20	> 20	> 20	> 20	> 20	> 20	–	inactive	ED50 (HCT-8 [13]): inactive
–	COc1cccc(-c2nc(O)c3cc(OC)ccc3n2)c1	–	–	> 20	3.4 (≈ 12 µM)	–	8 (≈ 28.3 µM)	> 20	> 20	3.5 (≈ 12.4 µM)	> 20	–	–
–	COc1ccc(-c2nc(O)c3ccccc3n2)c(OC)c1	> 20	> 20	> 20	–	> 20	> 20	> 20	> 20	> 20	> 20	–	ED50 (1A9 [10]): inactive
–	COc1cc(OC)cc(-c2nc(O)c3ccccc3n2)c1	> 20	–	–	–	–	> 20	> 20	> 20	> 20	–	inactive	ED50 (HCT-8 [13]): inactive; ED50 (HOS [9]): inactive; ED50 (1A9 [10]): inactive; ED50 (KB [17]): inactive
> 40	COc1ccc(C2NC(=O)c3ccccc3N2)cc1OC (centres undefined)	> 20	> 20	> 20	–	> 20	20 (≈ 70.3 µM)	> 20	> 20	16 (≈ 56.3 µM)	–	inactive	Inhibition (HOS [2]): 24%; Inhibition (KB [4]): 28%; Inhibition (PC-3 [5]): 30%
–	COc1cccc(-c2nc(O)c3ccccc3n2)c1OC	> 20	–	–	–	–	20 (≈ 70.8 µM)	20 (≈ 70.8 µM)	–	> 20	–	inactive	ED50 (HCT-8 [13]): inactive; ED50 (HOS [9]): inactive; ED50 (1A9 [10]): inactive; ED50 (KB [17]): inactive; ED50 (SK-MEL-2 [15]): inactive
–	COc1cccc(-c2nc(O)c3cc(N4CCCC4)ccc3n2)c1	0.5 (≈ 1.56 µM)	0.06 (≈ 0.187 µM)	7 (≈ 21.8 µM)	0.09 (≈ 0.28 µM)	0.23 (≈ 0.716 µM)	0.22 (≈ 0.685 µM)	15 (≈ 46.7 µM)	0.09 (≈ 0.28 µM)	0.1 (≈ 0.311 µM)	–	–	inhibition (Tubulin (Bos taurus)): 24%
32	COc1ccc(OC)c(C2NC(=O)c3ccccc3N2)c1 (centres undefined)	> 20	> 20	> 20	10 (≈ 35.2 µM)	> 20	> 20	> 20	> 20	8.4 (≈ 29.5 µM)	> 20	–	Inhibition (HOS [2]): 40%; Inhibition (KB [4]): 40%
–	COc1cccc(-c2nc(O)c3ccccc3n2)c1	> 20	> 20	> 20	> 20	–	26 (≈ 103 µM)	> 20	> 20	> 20	–	inactive	ED50 (KB [17]): inactive
> 40	COc1ccccc1C1NC(=O)c2ccccc2N1 (centres undefined)	> 20	> 20	> 20	–	> 20	> 20	> 20	< 20	10.2 (≈ 40.1 µM)	–	inactive	Inhibition (KB [4]): 32%; Inhibition (PC-3 [5]): 30%
5.6	COc1cccc(C2NC(=O)c3ccccc3N2)c1 (centres undefined)	3 (≈ 11.8 µM)	1.5 (≈ 5.9 µM)	> 20	1 (≈ 3.93 µM)	3 (≈ 11.8 µM)	> 20	> 20	> 20	1.2 (≈ 4.72 µM)	> 20	–	–
1.5	COc1cccc(C2NC(=O)c3cc(Cl)ccc3N2)c1 (centres undefined)	0.6 (≈ 2.08 µM)	0.48 (≈ 1.66 µM)	20 (≈ 69.3 µM)	0.27 (≈ 0.935 µM)	0.95 (≈ 3.29 µM)	16 (≈ 55.4 µM)	2.5 (≈ 8.66 µM)	< 2.5	0.42 (≈ 1.45 µM)	> 20	–	–
–	COc1cccc(-c2nc(O)c3cc(N4CCCCC4)ccc3n2)c1	2.8 (≈ 8.35 µM)	4.3 (≈ 12.8 µM)	–	0.9 (≈ 2.68 µM)	10 (≈ 29.8 µM)	8.5 (≈ 25.3 µM)	10 (≈ 29.8 µM)	4.5 (≈ 13.4 µM)	0.6 (≈ 1.79 µM)	9 (≈ 26.8 µM)	–	–
–	COc1cccc(-c2nc(O)c3cc(N(C)C)ccc3n2)c1	14 (≈ 47.4 µM)	–	> 20	0.49 (≈ 1.66 µM)	10 (≈ 33.9 µM)	0.85 (≈ 2.88 µM)	15 (≈ 50.8 µM)	19 (≈ 64.3 µM)	0.42 (≈ 1.42 µM)	> 20	–	–
–	COc1cccc(-c2nc(O)c3cc(Cl)ccc3n2)c1	3.2 (≈ 11.2 µM)	6 (≈ 20.9 µM)	17 (≈ 59.3 µM)	> 20	–	–	4.5 (≈ 15.7 µM)	4.8 (≈ 16.7 µM)	6.5 (≈ 22.7 µM)	10 (≈ 34.9 µM)	–	–
12	COc1cc(OC)cc(C2NC(=O)c3ccccc3N2)c1 (centres undefined)	5 (≈ 17.6 µM)	3 (≈ 10.6 µM)	> 20	–	4.7 (≈ 16.5 µM)	> 20	> 20	4.4 (≈ 15.5 µM)	1.6 (≈ 5.63 µM)	> 20	–	–

Source: ChEMBL document CHEMBL1133524 (J Med Chem, 2000)
